Experimental data published in publication PMC6099921, “Microwave Optimized Synthesis of N-(adamantan-1-yl)-4-[(adamantan-1-yl)-sulfamoyl]benzamide and Its Derivatives for Anti-Dengue Virus Activity” (Molecules : A Journal of Synthetic Chemistry and Natural …, 2018).
Like-named read-outs stand apart in the source and are kept apart here.

Tests used:
DENV2 = assay: Cell-based Flavivirus Immunodetection (CFI) assay, DENV envelope protein production in A549 cells; parameters: species or system dengue virus serotype 2; settings: ± standard deviation, at least three independent experiments
Method: (§1) The antiviral activity of the test compounds (1, 3, 6, and 7) was examined in the Cell-based Flavivirus Immuno-assay (CFI assay). The CFI assay is based on a quantitative immunodetection of the DENV envelope protein production in A549 cells. Infection of the A549 cells by the DENV2 was allowed to occur in the presence of each test compound, after which virus load was measured by quantifying the amount of envelope protein that is produced using enzyme linked immunosorbent assay (ELISA). To ensure that the inhibition of the envelope production was not due to cell death, the cytotoxicity of each test compound was assessed via the cell viability assay.
A549 cells (catalog no. CCL-185; ATCC, Manassas, VA, USA) were maintained in Ham’s F-12 medium with 10% fetal bovine serum (FBS) and 1% penicillin-streptomycin at 37 °C in 5% CO2. The DENV2 used in this study was prepared by inoculating monolayers of C6/36 cells grown in RPMI 1640 medium with 5% FBS and 1% penicillin-streptomycin. After incubation at 28 °C for four to five days, the cell culture supernatant was collected after clarification of cell debris and was stored at −80 °C until used.
A549 cells were trypsinised and diluted to a concentration of 2 × 10^5 cells/mL in culture medium containing 2% FBS. A total of 100 μL of the cell suspension (2 × 10^4 cells) was dispensed into each well of a 96-well tissue culture plate. The cells were grown overnight in culture medium at 37 °C with 5% CO2 and were then infected with the DENV at a multiplicity of infection of 0.3 in the presence of different concentrations of the test compounds for 1 h at 37 °C with 5% CO2. The virus inoculum was removed and then replaced with fresh medium containing the test compounds and the cells were incubated at 37 °C with 5% CO2 for 48 h. The cells were washed once with phosphate-buffered saline (PBS) and fixed with cold methanol for 10 min. After the fixed cells were washed twice with PBS, they were blocked with PBS containing 1% FBS and 0.05% Tween 20 for 1 h at room temperature. A primary antibody (antibody 4G2) solution was then added, and the mixture was incubated for 3 h. The cells were washed three times with PBS, followed by incubation for 1 h with horseradish peroxidase-conjugated anti-mouse immunoglobulin G. After the cells were washed three times with PBS, 3,3′,5,5′-tetramethylbenzidine substrate solution was added to each well, and the reaction was stopped by adding 0.5 M sulfuric acid. The absorbencies of the solutions were measured with a Tecan Safire II plate reader (Tecan Group Ltd., Männedorf, Switzerland) at 450 nm for viral antigen quantification. Dose-response curves were plotted from the mean absorbance versus the log of the concentration of the test compound. The IC50, that is, the concentration of the test compound that inhibited the level of viral envelope protein production by 50%, was calculated by nonlinear regression analysis. All of the experiments were conducted in triplicate.

[1] = Celltiter-Glo Luminescent cell viability assay (cytotoxicity); format: cell-based; settings: human
Method: as §1
(§2) The cytotoxicities of the test compounds were measured by a Celltiter-Glo Luminescent cell viability assay, according to the manufacturer’s protocol (catalog no. G7570; Promega, Madison, WI, USA). The A549 cell preparation and compound addition were performed, as described above under the “CFI assay”. After 48 h of incubation, the luminescent signals for cells treated with the test compounds were compared to those for cells treated with dimethyl sulfoxide (DMSO) to determine the CC50. […] All of the experiments were conducted in triplicate.

A549 cells = assay: as above; format: cell-based; settings: A549 cells, 48 h, maximum concentration tested 100 µM
Method: as §1, §2

DENV2 NS2B/NS3 protease = system: DENV2 NS2B/NS3 protease; parameters: method as in ref 6 (Timiri et al., 2015); settings: in vitro; ref 6 (Timiri et al., 2015); cited from earlier work
DENV [2] = system: DENV; parameters: method as in ref 8 (Koff et al., 1980); settings: all four serotypes, ref 8 (Koff et al., 1980); cited from earlier work
DENV [3] = system: DENV; parameters: method as in ref 9 (Lin and Chen, 2016); settings: small scale clinical study; ref 9 (Lin and Chen, 2016); cited from earlier work
[4] = A549 cells, 48 h, maximum concentration tested 100 µM, read-out: CC50
[5] = Dengue virus, DENV2, A549, 48 h, CFI assay, A549 cells infected with DENV2, MOI 0.3, 48 h, read-out: DENV2 IC50

| Compound | CC50 at 48 h [1, 4] [µM] | CC50 (A549 cells) [µM] | IC50 (DENV2 NS2B/NS3 protease) [µM] | IC50 (DENV2; [5]) [µM] | other results |
| --- | --- | --- | --- | --- | --- |
| O=C(NC12CC3CC(CC(C3)C1)C2)c1ccc(S(=O)(=O)NC23CC4CC(CC(C4)C2)C3)cc1 [Compound 3, N-(adamantan-1-yl)-4-[(adamantan-1-yl)sulfamoyl]benzamide] | < 100 | > 100 |  |  | IC50 (DENV2; CFI assay, A549 cells infected with DENV2, MOI 0.3, 48 h, read-out: DENV2 IC50): 22.4 ± 7.7 µM; IC50 (DENV2; Dengue virus, DENV2, A549, 48 h, read-out: DENV2 IC50, CFI assay, A549 cells infected with DENV2, MOI 0.3, 48 h): 22.2 µM |
| CCc1ccc(NS(=O)(=O)c2ccc(N3C(=O)c4ccccc4C3=O)cc2)cc1 [SF1] |  |  | 48.2 |  |  |
| O=C(NC12CC3CC(CC(C3)C1)C2)c1ccccc1 [Compound 6, N-(adamantan-1-yl)benzamide] | > 100 |  |  | > 100 |  |
| NC12CC3CC(CC(C3)C1)C2 [Compound 1, amantadine, reference compound] |  |  |  | > 100 | DENV2 IC50 (DENV2; CFI assay, A549 cells infected with DENV2, MOI 0.3, 48 h): did not show significant DENV2 activity; CC50 at 48 h ([1]; CC50): > 100 µM; anti-DENV activity in vitro (DENV [2]): anti-DENV activity on all four serotypes; treatment effectiveness in DENV infected patients (DENV [3]): effective treatment option |
| NS(=O)(=O)c1ccc(C(=O)NC23CC4CC(CC(C4)C2)C3)cc1 [Compound 7, N-(adamantan-1-yl)-4-sulfamoylbenzamide] | < 100 | > 100 |  | 42.8 ± 8.6 |  |
| O=C1c2ccccc2C(=O)N1c1ccc(S(=O)(=O)Nc2cccc3ccccc23)cc1 [SF2] |  |  | 122 |  |  |
